Measured values reported in patent US11730720B2, “ALK5 inhibitors” (THERAVANCE BIOPHARMA R&D IP, LLC, priority 2018, dated 2023).

What was measured:
[1] = target: T1, recombinant human ALK5 (TGF-βR1) protein (Homo sapiens, UniProt P36897); assay: Biochemical ALK5 (TGF-βR1) assay to measure pKi (LANCE Ultra ULight kinase assay); conditions: apparent pKi, converted from pIC50 using the Cheng-Prusoff equation
T1 construct: purchased Life Technologies PR9075A
T1 sequence (P36897 34-503): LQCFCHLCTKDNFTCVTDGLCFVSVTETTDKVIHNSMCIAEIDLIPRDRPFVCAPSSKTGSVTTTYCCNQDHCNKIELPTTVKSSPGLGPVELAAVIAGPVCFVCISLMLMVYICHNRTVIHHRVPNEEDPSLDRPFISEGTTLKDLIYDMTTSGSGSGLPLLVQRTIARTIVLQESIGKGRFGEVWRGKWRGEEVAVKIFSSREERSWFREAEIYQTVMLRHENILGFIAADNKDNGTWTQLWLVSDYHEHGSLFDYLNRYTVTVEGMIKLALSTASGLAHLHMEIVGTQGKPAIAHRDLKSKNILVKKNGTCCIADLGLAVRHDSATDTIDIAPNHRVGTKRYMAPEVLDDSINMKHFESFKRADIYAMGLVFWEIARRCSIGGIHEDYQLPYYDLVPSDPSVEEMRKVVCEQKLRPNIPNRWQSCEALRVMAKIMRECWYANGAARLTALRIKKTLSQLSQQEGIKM
In short: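 TR-FRET kinase format: compound dose range 10 μM–25 pM equilibrated 60 min with human ALK5 and ULight-labelled topoisomerase 2α peptide in HEPES/MgCl2 buffer pH 7.5 with DTT. Reaction started with ATP (125 μM stock, 5× final), 60 min at 37° C, stopped with EDTA/Eu-anti-phospho antibody; pKi derived from pIC50 via Cheng-Prusoff.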

[2] = tested on: TGF-β-stimulated SMAD3 phosphorylation in BEAS-2B cells; assay: Cellular ALK5 potency assay, inhibition of TGF-β stimulated pSMAD3 formation in BEAS-2B cells; format: cell-based; conditions: Homo sapiens, inhibition of TGF-β (10 ng/mL) stimulated pSMAD3 formation, 1 hour compound incubation, read-out: BEAS2B pIC50 (converted)
In short: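 Phospho-SMAD3 was quantified by AlphaLISA in lysates of human lung epithelial BEAS-2B cells. Compound was added 1 h (37 °C, HEPES/BSA-supplemented HBSS) before a 30 min challenge with 10 ng/mL TGF-β. Values are pIC50 relative to stimulated cells without compound.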

SMILES	Ki [1]	IC50 [2]
CC(C)N1CC=C(c2cnc3ccc(-c4c[nH]nc4-c4ccc(F)c(F)c4)nc3c2)C1 [Compound 8-23, 2-[3-(3,4-difluorophenyl)-1H-pyrazol-4-yl]-7-(1-isopropyl-2,5-dihydropyrrol-3-yl)-1,5-naphthyridine]	0.398 to 3.16 nM	25.1 to 158 nM
CC(C)NC1CC=C(c2cnc3ccc(-c4c[nH]nc4-c4ccc(F)c(F)c4)nc3c2)CC1 (stereo not shown) [Compound 8-24, 4-(6-(3-(3,4-difluorophenyl)-1H-pyrazol-4-yl)-1,5-naphthyridin-3-yl)-N-isopropylcyclohex-3-en-1-amine]	≤ 0.0316 nM	≤ 20 nM
CN(C)C1CC=C(c2cnc3ccc(-c4c[nH]nc4-c4ccc(F)c(F)c4)nc3c2)CC1 (stereo not shown) [Compound 8-25, 4-[6-[3-(3,4-difluorophenyl)-1H-pyrazol-4-yl]-1,5-naphthyridin-3-yl]-N,N-dimethyl-cyclohex-3-en-1-amine]	0.0398 to 0.316 nM	25.1 to 158 nM
Fc1ccc(-c2n[nH]cc2-c2ccc3ncc(C4=CCC(NCc5ccccc5)CC4)cc3n2)cc1F (stereo not shown) [Compound 8-26, N-benzyl-4-[6-[3-(3,4-difluorophenyl)-1H-pyrazol-4-yl]-1,5-naphthyridin-3-yl]cyclohex-3-en-1-amine]	0.0398 to 0.316 nM	25.1 to 158 nM
CNCCn1cc(-c2cnc3ccc(-c4c[nH]nc4-c4ccc(F)c(F)c4)nc3c2)nn1 [Compound 8-27, 2-(4-(6-(3-(3,4-difluorophenyl)-1H-pyrazol-4-yl)-1,5-naphthyridin-3-yl)-1H-1,2,3-triazol-1-yl)-N-methylethan-1-amine]	0.0398 to 0.316 nM	25.1 to 158 nM
Fc1ccc(-c2[nH]cnc2-c2ccc3ncc(NCCN4CCNCC4)cc3n2)cc1F [Compound 9-1, 6-(5-(3,4-difluorophenyl)-1H-imidazol-4-yl)-N-(2-(piperazin-1-yl)ethyl)-1,5-naphthyridin-3-amine]	0.398 to 3.16 nM	200 to 1260 nM
CC(C)N1CCN(CCNc2cnc3ccc(-c4nc[nH]c4-c4ccc(F)c(F)c4)nc3c2)CC1 [Compound 9-2, 6-[5-(3,4-difluorophenyl)-1H-imidazol-4-yl]-N-[2-(4-isopropylpiperazin-1-yl)ethyl]-1,5-naphthyridin-3-amine]	3.98 to 31.6 nM	25.1 to 158 nM
CNCCn1cc(-c2cnc3ccc(-c4nc[nH]c4-c4ccc(F)c(F)c4)nc3c2)cn1 [Compound 9-3, 2-(4-(6-(5-(3,4-difluorophenyl)-1H-imidazol-4-yl)-1,5-naphthyridin-3-yl)-1H-pyrazol-1-yl)-N-methylethan-1-amine]	≤ 0.0316 nM	≤ 20 nM
Fc1ccc(-c2n[nH]cc2-c2ccc3ncc(-c4cn[nH]c4)cc3n2)c(F)c1 [Compound 10-1, 2-(3-(2,4-difluorophenyl)-1H-pyrazol-4-yl)-7-(1H-pyrazol-4-yl)-1,5-naphthyridine]	0.0398 to 0.316 nM	≤ 20 nM
CC(C)N1CCN(CCNc2cnc3ccc(-c4c[nH]nc4-c4ccc(F)cc4F)nc3c2)CC1 [Compound 10-2, 6-(3-(2,4-difluorophenyl)-1H-pyrazol-4-yl)-N-(2-(4-isopropylpiperazin-1-yl)ethyl)-1,5-naphthyridin-3-amine]	3.98 to 31.6 nM	25.1 to 158 nM
CN1CCN(C2CCN(c3cnc4ccc(-c5c[nH]nc5-c5ccccc5F)nc4c3)CC2)CC1 [Compound 11-1, 2-(3-(2-fluorophenyl)-1H-pyrazol-4-yl)-7-(4-(4-methylpiperazin-1-yl)piperidin-1-yl)-1,5-naphthyridine]	0.398 to 3.16 nM	25.1 to 158 nM
NC1CCN(c2cnc3ccc(-c4c[nH]nc4-c4ccccc4F)nc3c2)C1 (stereo not shown) [Compound 11-2, 1-(6-(3-(2-fluorophenyl)-1H-pyrazol-4-yl)-1,5-naphthyridin-3-yl)pyrrolidin-3-amine]	0.398 to 3.16 nM	25.1 to 158 nM
CC(C)N1CCN(c2cnc3ccc(-c4c[nH]nc4-c4ccccc4F)nc3c2)CC1 [Compound 11-3, 2-[3-(2-fluorophenyl)-1H-pyrazol-4-yl]-7-(4-isopropylpiperazin-1-yl)-1,5-naphthyridine]	3.98 to 31.6 nM	25.1 to 158 nM
Fc1ccccc1-c1n[nH]cc1-c1ccc2ncc(-c3cccnc3)cc2n1 [Compound 11-4, 2-[3-(2-fluorophenyl)-1H-pyrazol-4-yl]-7-(3-pyridyl)-1,5-naphthyridine]	3.98 to 31.6 nM	25.1 to 158 nM
COC(=O)c1cnc2ccc(-c3[nH]nnc3-c3ccccc3F)nc2c1 [Compound 12-1, methyl 6-(4-(2-fluorophenyl)-1H-1,2,3-triazol-5-yl)-1,5-naphthyridine-3-carboxylate]	3.98 to 31.6 nM	200 to 1260 nM
Fc1ccccc1-c1[nH]nnc1-c1ccc2ncc(-c3c[nH]nc3C(F)(F)F)cc2n1 [Compound 12-2, 2-[5-(2-fluorophenyl)-1H-triazol-4-yl]-7-[3-(trifluoromethyl)-1H-pyrazol-4-yl]-1,5-naphthyridine]	3.98 to 31.6 nM	25.1 to 158 nM
CNCCn1cc(-c2cnc3ccc(-c4c[nH]nc4-c4cc(O)ccc4C)nc3c2)cn1 [Compound 13-1, 4-methyl-3-(4-(7-(1-(2-(methylamino)ethyl)-1H-pyrazol-4-yl)-1,5-naphthyridin-2-yl)-1H-pyrazol-3-yl)phenol]	0.398 to 3.16 nM	200 to 1260 nM
CNC1CCN(c2cnc3ccc(-c4c[nH]nc4-c4cccc(COC)c4)nc3c2)CC1 [Compound 14-1, 1-(6-(3-(3-(methoxymethyl)phenyl)-1H-pyrazol-4-yl)-1,5-naphthyridin-3-yl)-N-methylpiperidin-4-amine]	3.98 to 31.6 nM	25.1 to 158 nM
COCc1cccc(-c2n[nH]cc2-c2ccc3ncc(N4CCC(N5CCN(C)CC5)CC4)cc3n2)c1 [Compound 14-2, 2-[3-(3-(methoxymethyl)phenyl]-1H-pyrazol-4-yl]-7-[4-(4-methylpiperazin-1-yl)-1-piperidyl]-1,5-naphthyridine]	0.398 to 3.16 nM	25.1 to 158 nM
COCc1cccc(-c2n[nH]cc2-c2ccc3ncc(N4CCC(N5CCCC5)CC4)cc3n2)c1 [Compound 14-3, 2-[3-[3-(methoxymethyl)phenyl]-1H-pyrazol-4-yl]-7-(4-pyrrolidin-1-yl-1-piperidyl)-1,5-naphthyridine]	3.98 to 31.6 nM	25.1 to 158 nM
COCc1cccc(-c2n[nH]cc2-c2ccc3ncc(N4CCN(C(C)C)CC4)cc3n2)c1 [Compound 14-5, 7-(4-isopropylpiperazin-1-yl)-2-[3-[3-(methoxymethyl)phenyl]-1H-pyrazol-4-yl]-1,5-naphthyridine]	3.98 to 31.6 nM	25.1 to 158 nM
COCc1cccc(-c2n[nH]cc2-c2ccc3ncc(N4CCC(N)C4)cc3n2)c1 (stereo not shown) [Compound 14-6, 1-[6-[3-[3-(methoxymethyl)phenyl]-1H-pyrazol-4-yl]-1,5-naphthyridin-3-yl]pyrrolidin-3-amine]	0.398 to 3.16 nM	25.1 to 158 nM
COCc1cccc(-c2n[nH]cc2-c2ccc3ncc(N4CCC(N(C)C)CC4)cc3n2)c1 [Compound 14-7, 1-[6-[3-[3-(methoxymethyl)phenyl]-1H-pyrazol-4-yl]-1,5-naphthyridin-3-yl]-N,N-dimethyl-piperidin-4-amine]	3.98 to 31.6 nM	25.1 to 158 nM
CNCCn1cc(-c2cnc3ccc(-c4c[nH]nc4-c4cccc(COC)c4)nc3c2)cn1 [Compound 14-8, 2-(4-(6-(3-(3-(methoxymethyl)phenyl)-1H-pyrazol-4-yl)-1,5-naphthyridin-3-yl)-1H-pyrazol-1-yl)-N-methylethan-1-amine]	0.0398 to 0.316 nM	25.1 to 158 nM
COCc1cccc(-c2n[nH]cc2-c2ccc3ncc(-c4cn[nH]c4)cc3n2)c1 [Compound 14-9, 2-[3-[3-(methoxymethyl)phenyl]-1H-pyrazol-4-yl]-7-(1H-pyrazol-4-yl)-1,5-naphthyridine]	0.398 to 3.16 nM	≤ 20 nM
CNCCn1ccc(-c2cnc3ccc(-c4c[nH]nc4-c4cccc(COC)c4)nc3c2)n1 [Compound 14-10, 2-[3-[6-[3-[3-(methoxymethyl)phenyl]-1H-pyrazol-4-yl]-1,5-naphthyridin-3-yl]pyrazol-1-yl]-N-methyl-ethanamine]	0.398 to 3.16 nM	25.1 to 158 nM
COCc1cccc(-c2n[nH]cc2-c2ccc3ncc(-c4cnn(CC5CNC5)c4)cc3n2)c1 [Compound 14-11, 7-[1-(azetidin-3-ylmethyl)pyrazol-4-yl]-2-[3-[3-(methoxymethyl)phenyl]-1H-pyrazol-4-yl]-1,5-naphthyridine]	0.0398 to 0.316 nM	25.1 to 158 nM
COCc1cccc(-c2n[nH]cc2-c2ccc3ncc(C4=CCC(N)CC4)cc3n2)c1 (stereo not shown) [Compound 14-12, 4-[6-[3-[3-(methoxymethyl)phenyl]-1H-pyrazol-4-yl]-1,5-naphthyridin-3-yl]cyclohex-3-en-1-amine]	0.398 to 3.16 nM	25.1 to 158 nM
COCc1cccc(-c2n[nH]cc2-c2ccc3ncc(-c4cnn(CCN)c4)cc3n2)c1 [Compound 14-13, 2-[4-[6-[3-[3-(methoxymethyl)phenyl]-1H-pyrazol-4-yl]-1,5-naphthyridin-3-yl]pyrazol-1-yl]ethanamine]	0.0398 to 0.316 nM	25.1 to 158 nM
